Results published in patent EP0769966B1, “BIOTIN COMPOUNDS FOR TARGETTING TUMORS AND SITES OF INFECTION” (priority 1994, dated 1995).

Legend:
[1] = tested on: E. coli infection in right thigh; conditions: Time 4 (time unit not given); Reference *1; cited from earlier work
[2] = target: avidin (Gallus gallus, UniProt P02701); assay: Competitive binding of F-18 labeled biotin analogs to avidin vs. unlabeled d-biotin; conditions: in the presence of varying concentrations of unlabeled d-biotin
Procedure: The two biotin derivatives were evaluated for binding to avidin in the presence of varying concentrations of unlabeled d-biotin as described in Example 3.
A preliminary measure of the binding characteristics of the fluoro analogs of biotin were performed. The binding of these novel F-18 labeled biotin analogs to avidin was evaluated by measuring the binding of F-18 labeled biotin analogs to avidin in the presence of varying concentrations of unlabeled d-biotin. Serial dilutions of d-biotin were prepared in phopshate buffered saline pH 7.4 (PBS). A fixed quantity of the no-carrier added F-18 labeled biotin 1 or 2 (10- 100µCi) were mixed with each d-biotin dilution so that the range of concentrations of cold biotin were 3 orders of magnitude greater and less than the concentration of avidin ([…]). A 200 µl aliquot of the F-18 biotin/cold biotin solution was added to 200 µl of avidin in PBS. The solution was vortexed and allowed to incubate for 1 hour after which time a 5 µl aliquot of the solution was analysed by instant thin layer chromatography (Gelman ILTC-SG) using 0.1 M acetate buffer pH 6.0. In this chromatographic system the F-18 biotin analogs bound to avidin origin while the unbound F-18-biotin analogs move to the solvent front. Percent binding of F-18 biotin analog was calculated as [(counts at origin/total counts)* 100]. For each F-18-biotin analog potential impurities remaining at the origin were determined and the results of binding corrected accordingly.

[3] = in vivo; type: in vivo, male Sprague-Dawley rats; conditions: rat, in vivo, iv
Procedure: (§1) A clinical isolate of E. Coli was stored at -70°C in a freezing media containing 20% glycerol and 80% dextrose phosphate until use. Aliquots of bacteria were defrosted and colony counts performed on serial dilutions grown overnight on BBL Brucella agar plates. Based on the colony count, freshly thawed bacteria suspensions were washed and diluted with saline to a final concentration of […]. Aliquots (0.1 ml) of bacterial suspensions (8 x 10^9 organisms/ml) were injected into the right thigh muscle of 48 male Sprague-Dawley rats (125-150 g, Charles River Breeding Laboratories, Burlington, MD). Twenty-four rats were used for each labeled biotin compound. Twenty-four hours after injection, swelling in the right thigh readily appeared, and 24 rats each received 1.67 mg of avidin in saline via the tail vein. […] Rats were sacrificed at 5 and 60 min. post-injection, six rats per time point. Blood samples were obtained by cardiac puncture. Syringes were weighed before and after injection to determine the volume delivered. The activity per unit volume was obtained from standards. A total of eleven different tissues were excised, weighed, and counted. These tissues included blood; bone; lung; liver; adrenal; spleen; kidneys; heart; muscle (thigh); teste; and infected muscle (thigh). The excised tissues were blotted, weighed, and counted in a scintillation well counter. The raw counts were decay corrected. The results were expressed as percent injected dose per gram, and infection-to-normal muscle ratios (mean ± s.d.). The biodistribution results were evaluated by analysis of variance (one-way ANOVA). The effect of avidin […] on biodistribution was evaluated by student t-test.

[4] = tested on: E. coli infected rats; assay: in vivo; type: in vivo, male Sprague-Dawley rats; conditions: for Infected to normal tissue ratio, Norm mus: infection/normal muscle
Procedure: as §1

Sequence of avidin (P02701 25-152): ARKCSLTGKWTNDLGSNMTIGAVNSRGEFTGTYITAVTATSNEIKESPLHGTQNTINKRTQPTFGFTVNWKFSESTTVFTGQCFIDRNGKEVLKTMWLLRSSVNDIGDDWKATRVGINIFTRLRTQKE

In the case of ^67Ga-citrate, the Infected/normal muscle ratio [1] is given as 2.6±0.6.
With `O=C1N[C@H]2[C@H](CS[C@H]2CCCCC[18F])N1` [Biotin 2] the binding to avidin [2] was “no specific binding”, the tissue uptake at 5 min ([3]; Tissue distribution, Adrenal) was 1.56 ± 0.14 %ID/g and the tissue uptake at 1 h ([3]; Tissue distribution, Adrenal) was 0.92 ± 0.21 %ID/g. For the same molecule, the tissue uptake at 5 min ([3]; Tissue distribution, Blood) was 0.88 ± 0.07 %ID/g, the tissue uptake at 1 h ([3]; Tissue distribution, Blood) was 0.3 ± 0.02 %ID/g and the tissue uptake at 5 min ([3]; Tissue distribution, Bone) was 0.73 ± 0.09 %ID/g. It also gave a tissue uptake at 1 h ([3]; Tissue distribution, Bone) of 1.17 ± 0.21 %ID/g, a tissue uptake at 5 min ([3]; Tissue distribution, Heart) of 0.8 ± 0.06 %ID/g and a tissue uptake at 1 h ([3]; Tissue distribution, Heart) of 0.25 ± 0.03 %ID/g. For the same molecule, the tissue uptake at 5 min ([3]; Tissue distribution, Inf mus) was 0.49 ± 0.05 %ID/g, the tissue uptake at 1 h ([3]; Tissue distribution, Inf mus) was 0.2 ± 0.02 %ID/g and the tissue uptake at 5 min ([3]; Tissue distribution, Kidney) was 1.62 ± 0.18 %ID/g. For the same molecule, the tissue uptake at 5 min ([3]; Tissue distribution, Liver) was 1.63 ± 0.27 %ID/g, the tissue uptake at 1 h ([3]; Tissue distribution, Liver) was 0.42 ± 0.03 %ID/g and the tissue uptake at 5 min ([3]; Tissue distribution, Lung) was 1.38 ± 0.21 %ID/g. For the same molecule, the tissue uptake at 1 h ([3]; Tissue distribution, Lung) was 0.58 ± 0.1 %ID/g, the tissue uptake at 5 min ([3]; Tissue distribution, Norm mus) was 0.62 ± 0.09 %ID/g and the tissue uptake at 1 h ([3]; Tissue distribution, Norm mus) was 0.35 ± 0.09 %ID/g. For the same molecule, the tissue uptake at 5 min ([3]; Tissue distribution, Spleen) was 1.7 ± 0.68 %ID/g, the tissue uptake at 1 h ([3]; Tissue distribution, Spleen) was 0.26 ± 0.01 %ID/g and the tissue uptake at 5 min ([3]; Tissue distribution, Teste) was 0.59 ± 0.08 %ID/g. The tissue uptake at 1 h ([3]; Tissue distribution, Teste) was 0.2 ± 0.03 %ID/g, the tissue uptake at 1 h ([3]; ^18F bone uptake (defluorination in vivo)) was 1.17 ± 0.21 %ID/g and the “Infected to normal tissue ratio, Adrenal” value ([4]; With Avidin, 5 Min.) was 0.22±0.03. The “Infected to normal tissue ratio, Blood” value ([4]; With Avidin, 5 Min.) was 0.51±0.07, the “Infected to normal tissue ratio, Heart” value ([4]; With Avidin, 5 Min.) was 0.46±0.03 and the “Infected to normal tissue ratio, Kidney” value ([4]; With Avidin, 5 Min.) was 0.16±0.02. The “Infected to normal tissue ratio, Liver” value ([4]; With Avidin, 5 Min.) was 0.23±0.02, the “Infected to normal tissue ratio, Lung” value ([4]; With Avidin, 5 Min.) was 0.28±0.02 and the “Infected to normal tissue ratio, Spleen” value ([4]; With Avidin, 5 Min.) was 0.44±0.05. The “Infected to normal tissue ratio, Teste” value ([4]; With Avidin, 5 Min.) was 0.59±0.03, the “Infected to normal tissue ratio, bone” value ([4]; With Avidin, 5 Min.) was 0.51±0.03 and the “Infected to normal tissue ratio, Norm mus” value ([4]; With Avidin, 5 Min.) was 0.65±0.10. The “Infected to normal tissue ratio, Adrenal” value ([4]; With Avidin, 60 Min.) was 0.214±0.03, the “Infected to normal tissue ratio, Blood” value ([4]; With Avidin, 60 Min.) was 0.71±0.05 and the “Infected to normal tissue ratio, Heart” value ([4]; With Avidin, 60 Min.) was 0.91±0.05. For the same molecule, the “Infected to normal tissue ratio, Kidney” value ([4]; With Avidin, 60 Min.) was 0.13±0.02, the “Infected to normal tissue ratio, Liver” value ([4]; With Avidin, 60 Min.) was 0.33±0.05 and the “Infected to normal tissue ratio, Lung” value ([4]; With Avidin, 60 Min.) was 0.33±0.06. The “Infected to normal tissue ratio, Spleen” value ([4]; With Avidin, 60 Min.) was 0.35±0.04, the “Infected to normal tissue ratio, Teste” value ([4]; With Avidin, 60 Min.) was 1.15±0.06 and the “Infected to normal tissue ratio, bone” value ([4]; With Avidin, 60 Min.) was 0.17±0.03. For the same molecule, the “Infected to normal tissue ratio, Norm mus” value ([4]; With Avidin, 60 Min.) was 0.64±0.07, the “Infected to normal tissue ratio, Adrenal” value ([4]; Without Avidin, 5 Min.) was 0.31±0.02 and the “Infected to normal tissue ratio, Blood” value ([4]; Without Avidin, 5 Min.) was 0.56±0.04. For the same molecule, the “Infected to normal tissue ratio, Heart” value ([4]; Without Avidin, 5 Min.) was 0.61±0.03, the “Infected to normal tissue ratio, Kidney” value ([4]; Without Avidin, 5 Min.) was 0.30±0.02 and the “Infected to normal tissue ratio, Liver” value ([4]; Without Avidin, 5 Min.) was 0.31±0.04. For the same molecule, the “Infected to normal tissue ratio, Lung” value ([4]; Without Avidin, 5 Min.) was 0.36±0.05, the “Infected to normal tissue ratio, Spleen” value ([4]; Without Avidin, 5 Min.) was 0.70±0.04 and the “Infected to normal tissue ratio, Teste” value ([4]; Without Avidin, 5 Min.) was 0.84±0.10. The “Infected to normal tissue ratio, bone” value ([4]; Without Avidin, 5 Min.) was 0.67±0.05, the “Infected to normal tissue ratio, Norm mus” value ([4]; Without Avidin, 5 Min.) was 0.80±0.12 and the “Infected to normal tissue ratio, Adrenal” value ([4]; Without Avidin, 60 Min.) was 0.23±0.05. For the same molecule, the “Infected to normal tissue ratio, Blood” value ([4]; Without Avidin, 60 Min.) was 0.68±0.06, the “Infected to normal tissue ratio, Heart” value ([4]; Without Avidin, 60 Min.) was 0.81±0.05 and the “Infected to normal tissue ratio, Kidney” value ([4]; Without Avidin, 60 Min.) was 0.35±0.03. For the same molecule, the “Infected to normal tissue ratio, Liver” value ([4]; Without Avidin, 60 Min.) was 0.48±0.33, the “Infected to normal tissue ratio, Lung” value ([4]; Without Avidin, 60 Min.) was 0.43±0.20 and the “Infected to normal tissue ratio, Spleen” value ([4]; Without Avidin, 60 Min.) was 0.78±0.08. For the same molecule, the “Infected to normal tissue ratio, Teste” value ([4]; Without Avidin, 60 Min.) was 1.04±0.11, the “Infected to normal tissue ratio, bone” value ([4]; Without Avidin, 60 Min.) was 0.17±0.03 and the “Infected to normal tissue ratio, Norm mus” value ([4]; Without Avidin, 60 Min.) was 0.58 ± 0.07. For the same molecule, the “Infected to normal tissue ratio, Norm mus” value ([4]; Without Avidin, 60 Min., listed as 18F-labeled biotin 2) was 0.58±0.07, the “Tissue distribution, Adrenal” value ([4]; rat, in vivo, iv, 5 min) was 2.00±0.24 percent injected dose per gram and the “Tissue distribution, Blood” value ([4]; rat, in vivo, iv, 5 min) was 0.85±0.04 percent injected dose per gram. For the same molecule, the “Tissue distribution, Bone” value ([4]; rat, in vivo, iv, 5 min) was 0.86±0.12 percent injected dose per gram, the “Tissue distribution, Heart” value ([4]; rat, in vivo, iv, 5 min) was 0.96±0.10 percent injected dose per gram and the “Tissue distribution, Inf mus” value ([4]; rat, in vivo, iv, 5 min) was 0.44±0.05 percent injected dose per gram. For the same molecule, the “Tissue distribution, Kidney” value ([4]; rat, in vivo, iv, 5 min) was 2.70±0.48 percent injected dose per gram, the “Tissue distribution, Liver” value ([4]; rat, in vivo, iv, 5 min) was 1.91±0.22 percent injected dose per gram and the “Tissue distribution, Lung” value ([4]; rat, in vivo, iv, 5 min) was 1.59±0.16 percent injected dose per gram. The “Tissue distribution, Norm mus” value ([4]; rat, in vivo, iv, 5 min) was 0.69±0.10 percent injected dose per gram, the “Tissue distribution, Spleen” value ([4]; rat, in vivo, iv, 5 min) was 0.99±0.10 percent injected dose per gram and the “Tissue distribution, Teste” value ([4]; rat, in vivo, iv, 5 min) was 0.74±0.11 percent injected dose per gram. The “Tissue distribution, Adrenal” value ([4]; rat, in vivo, iv, 1 h) was 0.72±0.12 percent injected dose per gram, the “Tissue distribution, Bone” value ([4]; rat, in vivo, iv, 1 h) was 1.10±0.20 percent injected dose per gram and the “Tissue distribution, Inf mus” value ([4]; rat, in vivo, iv, 1 h) was 0.18±0.02 percent injected dose per gram. For the same molecule, the “Tissue distribution, Liver” value ([4]; rat, in vivo, iv, 1 h) was 0.55±0.13 percent injected dose per gram, the “Tissue distribution, Lung” value ([4]; rat, in vivo, iv, 1 h) was 0.55±0.12 percent injected dose per gram and the “Tissue distribution, Norm mus” value ([4]; rat, in vivo, iv, 1 h) was 0.28±0.04 percent injected dose per gram. For the same molecule, the “Tissue distribution, Spleen” value ([4]; rat, in vivo, iv, 1 h) was 0.51±0.09 percent injected dose per gram and the “Tissue distribution, Teste” value ([4]; rat, in vivo, iv, 1 h) was 0.15±0.02 percent injected dose per gram.
